Data reported in patent publication US10597388B2, “Pyridazinone herbicides” (FMC CORPORATION, priority 2014, dated 2020).

What was measured:
Format in all cases: in vivo
[1] = system: blackgrass (Alopecurus myosuroides); test: Test A greenhouse herbicide test, postemergence
Method in brief: (§1)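 Pot-grown plants (loam soil/sand blend), 2–10 cm tall at the one- to two-leaf stage, received postemergence sprays of formulated test chemical. After about 10 d in the greenhouse, injury was rated visually against untreated controls on a 0 (no effect) to 100 (complete control) scale.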

[2] = system: galium (catchweed bedstraw, Galium aparine); test: Test A greenhouse herbicide test, postemergence
Method in brief: as §1

[3] = system: oat, wild (wild oat, Avena fatua); test: Test C greenhouse herbicide test, postemergence
Method in brief: (§2)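 Plants grown in potting mix of peat moss, vermiculite, wetting agent and starter nutrients were sprayed postemergence at 2 to 18 cm height (1- to 4-leaf stage). After 13 to 15 d in the greenhouse, injury was visually rated against untreated controls on a 0–100 scale (0 no effect, 100 complete control).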

kochia (Kochia scoparia) [4] = test: Test C greenhouse herbicide test, postemergence
Method in brief: as §2

[5] = system: ryegrass, Italian (Italian ryegrass, Lolium multiflorum); test: Test A greenhouse herbicide test, pre- and postemergence
Method in brief: (§3)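 Seeds in loam–sand blend received a preemergence directed soil spray; plants at 2–10 cm, one- to two-leaf stage, received postemergence sprays. Compounds in a non-phytotoxic solvent with surfactant. After about 10 d in a greenhouse, injury rated visually versus untreated controls on a 0–100 scale (100 = complete control).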

[6] = system: wheat (Triticum aestivum); test: as above; settings: Postemergence
Method in brief: as §3

[7] = system: foxtail, giant (giant foxtail, Setaria faberii); test: as above
Method in brief: as §3

kochia (Kochia scoparia) [8] = test: as above
Method in brief: as §3

corn (Zea mays) = test: as above; settings: Postemergence
Method in brief: as §3

[9] = system: barnyardgrass (Echinochloa crus-galli); test: as above
Method in brief: as §3

[10] = system: ragweed (common ragweed, Ambrosia elatior); test: as above
Method in brief: as §3

[11] = system: pigweed (Amaranthus retroflexus); test: as above
Method in brief: as §3

[12] = 125 g ai/ha, 0 to 100 scale where 0 is no effect and 100 is complete control
[13] = 500 g ai/ha, visual rating after approx. 10 d, 0 to 100 scale (0 no effect, 100 complete control)
[14] = Postemergence, 31 g ai/ha, scale 0 to 100 (0 no effect, 100 complete control)
[15] = Postemergence, 62 g ai/ha, 0 to 100 scale (0 no effect, 100 complete control)
[16] = Postemergence, 250 g ai/ha, scale 0 to 100, 0 no effect, 100 complete control, 13 to 15 d
[17] = postemergence, 125 g ai/ha, scale 0 to 100, 0 no effect, 100 complete control
[18] = Postemergence, 125 g ai/ha, 0 to 100 scale where 0 is no effect and 100 is complete control
[19] = Postemergence, 500 g ai/ha, visual rating after approx. 10 d, 0 to 100 scale (0 no effect, 100 complete control)
[20] = Preemergence, 500 g ai/ha, 0 to 100 scale where 0 is no effect and 100 is complete control
[21] = Preemergence, 125 g ai/ha, 0 to 100 scale where 0 is no effect and 100 is complete control
[22] = 500 g ai/ha, 0 to 100 scale, 0 is no effect, 100 is complete control
[23] = Postemergence, 31 g ai/ha, 0 to 100 scale (0 no effect, 100 complete control)
[24] = Postemergence, 125 g ai/ha, scale 0 to 100, 0 is no effect, 100 is complete control
[25] = postemergence, 62 g ai/ha, scale 0 to 100, 0 no effect, 100 complete control
[26] = Postemergence, 500 g ai/ha, 0 to 100 scale, 0 is no effect, 100 is complete control
[27] = Preemergence, 500 g ai/ha, 0 to 100 scale, 0 no effect, 100 complete control

COc1nn(C)c(=O)c(-c2c(C)ccc3ccccc23)c1OC(C)=O [Compound 138]
Plant response rating, Blackgrass [1, 12]: 80
Plant response rating, Blackgrass [1, 13]: 90
Plant response rating, Galium [2, 12]: 100
Plant response rating, Galium [2, 13]: 100
Plant response rating, Oat, Wild [3, 14]: 50
Oat, Wild plant response rating [3, 15]: 80
Plant response rating, Oat, Wild [3, 16]: 90
Oat, Wild plant response rating [3, 17]: 80
Plant response rating, Kochia (kochia (Kochia scoparia) [4]; [14]): 90
Kochia plant response rating (kochia (Kochia scoparia) [4]; [15]): 95
Plant response rating, Kochia (kochia (Kochia scoparia) [4]; [16]): 100
Kochia plant response rating (kochia (Kochia scoparia) [4]; [17]): 100
Plant response rating, Ryegrass, Italian [5, 18]: 90
Plant response rating, Ryegrass, Italian [5, 19]: 100
Plant response rating, Ryegrass, Italian [5, 20]: 100
Plant response rating, Wheat [6, 12]: 0
Plant response rating, Wheat [6, 13]: 20
Plant response rating, Foxtail, Giant [7, 18]: 90
Plant response rating, Foxtail, Giant [7, 19]: 100
Foxtail, Giant plant response rating [7, 21]: 90
Plant response rating, Foxtail, Giant [7, 20]: 100
Plant response rating, Kochia (kochia (Kochia scoparia) [8]; [18]): 100
Plant response rating, Kochia (kochia (Kochia scoparia) [8]; [19]): 100
Kochia plant response rating (kochia (Kochia scoparia) [8]; [21]): 40
Plant response rating, Kochia (kochia (Kochia scoparia) [8]; [20]): 100
Plant response rating, Corn (corn (Zea mays); [12]): 0
Plant response rating, Corn (corn (Zea mays); [13]): 20
Plant response rating, Barnyardgrass [9, 18]: 20
Plant response rating, Barnyardgrass [9, 19]: 100
Barnyardgrass plant response rating [9, 21]: 10
Plant response rating, Barnyardgrass [9, 20]: 100
Plant response rating, Ragweed [10, 18]: 100
Plant response rating, Ragweed [10, 19]: 100
Plant response rating, Ragweed [10, 20]: 100
Plant response rating, Pigweed [11, 18]: 90
Plant response rating, Pigweed [11, 19]: 100
Pigweed plant response rating [11, 21]: 100
Plant response rating, Pigweed [11, 20]: 100

COC(=O)Oc1c(Br)nn(C)c(=O)c1-c1c(C)ccc2ccccc12 [Compound 137]
Plant response rating, Blackgrass [1, 12]: 90
Plant response rating, Blackgrass [1, 13]: 100
Plant response rating, Galium [2, 12]: 100
Plant response rating, Galium [2, 13]: 100
Plant response rating, Oat, Wild [3, 14]: 70
Oat, Wild plant response rating [3, 15]: 70
Plant response rating, Oat, Wild [3, 16]: 90
Oat, Wild plant response rating [3, 17]: 90
Plant response rating, Kochia (kochia (Kochia scoparia) [4]; [14]): 100
Kochia plant response rating (kochia (Kochia scoparia) [4]; [15]): 100
Plant response rating, Kochia (kochia (Kochia scoparia) [4]; [16]): 100
Kochia plant response rating (kochia (Kochia scoparia) [4]; [17]): 100
Plant response rating, Ryegrass, Italian [5, 18]: 100
Plant response rating, Ryegrass, Italian [5, 19]: 100
Ryegrass, Italian plant response rating [5, 21]: 100
Plant response rating, Ryegrass, Italian [5, 20]: 100
Plant response rating, Wheat [6, 12]: 50
Plant response rating, Wheat [6, 13]: 90
Plant response rating, Foxtail, Giant [7, 18]: 100
Plant response rating, Foxtail, Giant [7, 19]: 100
Foxtail, Giant plant response rating [7, 21]: 90
Plant response rating, Foxtail, Giant [7, 20]: 100
Plant response rating, Kochia (kochia (Kochia scoparia) [8]; [18]): 100
Plant response rating, Kochia (kochia (Kochia scoparia) [8]; [19]): 100
Kochia plant response rating (kochia (Kochia scoparia) [8]; [21]): 30
Plant response rating, Kochia (kochia (Kochia scoparia) [8]; [20]): 100
Plant response rating, Corn (corn (Zea mays); [12]): 30
Plant response rating, Corn (corn (Zea mays); [13]): 70
Plant response rating, Barnyardgrass [9, 18]: 70
Plant response rating, Barnyardgrass [9, 19]: 100
Barnyardgrass plant response rating [9, 21]: 90
Plant response rating, Barnyardgrass [9, 20]: 100
Plant response rating, Ragweed [10, 18]: 100
Plant response rating, Ragweed [10, 19]: 100
Ragweed plant response rating [10, 21]: 90
Plant response rating, Ragweed [10, 20]: 100
Plant response rating, Pigweed [11, 18]: 100
Plant response rating, Pigweed [11, 19]: 100
Pigweed plant response rating [11, 21]: 100
Plant response rating, Pigweed [11, 20]: 100

COc1nn(C)c(=O)c(-c2c(C)ccc3ccccc23)c1O [Compound 54]
Plant response rating, Blackgrass [1, 12]: 20
Blackgrass plant response rating [1, 22]: 40
Plant response rating, Galium [2, 12]: 100
Galium plant response rating [2, 22]: 100
Oat, Wild plant response rating [3, 23]: 45
Plant response rating, Oat, Wild [3, 24]: 60
Plant response rating, Oat, Wild [3, 16]: 85
Oat, Wild plant response rating [3, 25]: 50
Kochia plant response rating (kochia (Kochia scoparia) [4]; [23]): 50
Plant response rating, Kochia (kochia (Kochia scoparia) [4]; [24]): 90
Plant response rating, Kochia (kochia (Kochia scoparia) [4]; [16]): 95
Kochia plant response rating (kochia (Kochia scoparia) [4]; [25]): 90
Plant response rating, Ryegrass, Italian [5, 18]: 60
Ryegrass, Italian plant response rating [5, 26]: 100
Ryegrass, Italian plant response rating [5, 21]: 30
Plant response rating, Ryegrass, Italian [5, 27]: 100
Plant response rating, Wheat [6, 12]: 20
Wheat plant response rating [6, 22]: 20
Plant response rating, Foxtail, Giant [7, 18]: 60
Foxtail, Giant plant response rating [7, 26]: 90
Foxtail, Giant plant response rating [7, 21]: 60
Plant response rating, Foxtail, Giant [7, 27]: 100
Plant response rating, Kochia (kochia (Kochia scoparia) [8]; [18]): 100
Kochia plant response rating (kochia (Kochia scoparia) [8]; [26]): 100
Kochia plant response rating (kochia (Kochia scoparia) [8]; [21]): 50
Plant response rating, Kochia (kochia (Kochia scoparia) [8]; [27]): 100
Plant response rating, Corn (corn (Zea mays); [12]): 20
Corn plant response rating (corn (Zea mays); [22]): 30
Plant response rating, Barnyardgrass [9, 18]: 30
Barnyardgrass plant response rating [9, 26]: 90
Barnyardgrass plant response rating [9, 21]: 40
Plant response rating, Barnyardgrass [9, 27]: 90
Plant response rating, Ragweed [10, 18]: 100
Ragweed plant response rating [10, 26]: 100
Ragweed plant response rating [10, 21]: 90
Plant response rating, Ragweed [10, 27]: 100
Plant response rating, Pigweed [11, 18]: 90
Pigweed plant response rating [11, 26]: 100
Pigweed plant response rating [11, 21]: 100
Plant response rating, Pigweed [11, 27]: 100
